Experiments:
[1] = tested on: heterozygous deletion C. albicans strains; assay: Whole genome Haploinsufficiency Profiling (HIP); assay type: cell-based, Candida albicans; conditions: 0.05 μM Compound 1 + 0.125 μg/ml FLC vs. 0.125 μg/ml FLC
Experimental: Whole genome Haploinsufficiency Profiling (HIP) analysis. Haplo-Insufficiency Profiling (HIP) with the Double BarCoded (DBC) library was used. A pool of 5,470 heterozygous deletion C. albicans strains constructed by Merck, to identify potential targets for the azole-synergizer, Compound 1. The collection, obtained from Merck Sharp & Dohme Corp in 96-well plates, were transferred to YPD (2% peptone, 1% yeast extract, and 2% glucose) agar plates and grown at 30° C. for 72 h. All colonies were collected from plates and pooled in SC medium, add glycerol to 15% and adjust to the final concentration of 50 OD600 nm per milliliter, store in aliquot at −80° C.
Stock pools were diluted into SC medium to an OD600 nm of 0.0875 and drug treatments were performed in a 1 ml SC medium in 24-well plates. The appropriate drug treatment concentrations were determined before screening. […]
Bioinformatics analysis of HIP. Sequencing reads were first separated by their experimental tags into treatments and then filtered by UPTAG or DNTAG. Among the reads mapped with experimental tags, more than 95% can be filtered exclusively by UPTAG or DNTAGs. Filtered reads were mapped to an artificial genome containing each individual gene in the library identified by UPTAG or DNTAG using bowtie 1.0.
Read counts per gene were calculated using a weighted arithmetic mean of mapped UPTAG and DNTAG read counts. […]

Cdr1 = molecular target: T1, Cdr1 (Candida albicans, UniProt Q5ANA3); assay: Efflux of Rhodamine 6G (Cdr1 efflux assay); assay type: cell-based; conditions: C. albicans SC5314; R6G 10 μM; Compound 1 0.3, 3 and 30 μM
T1 construct: endogenous in cells; host or cells: Candida albicans SC5314 (wild type)
T1 sequence (Q5ANA3 whole entry): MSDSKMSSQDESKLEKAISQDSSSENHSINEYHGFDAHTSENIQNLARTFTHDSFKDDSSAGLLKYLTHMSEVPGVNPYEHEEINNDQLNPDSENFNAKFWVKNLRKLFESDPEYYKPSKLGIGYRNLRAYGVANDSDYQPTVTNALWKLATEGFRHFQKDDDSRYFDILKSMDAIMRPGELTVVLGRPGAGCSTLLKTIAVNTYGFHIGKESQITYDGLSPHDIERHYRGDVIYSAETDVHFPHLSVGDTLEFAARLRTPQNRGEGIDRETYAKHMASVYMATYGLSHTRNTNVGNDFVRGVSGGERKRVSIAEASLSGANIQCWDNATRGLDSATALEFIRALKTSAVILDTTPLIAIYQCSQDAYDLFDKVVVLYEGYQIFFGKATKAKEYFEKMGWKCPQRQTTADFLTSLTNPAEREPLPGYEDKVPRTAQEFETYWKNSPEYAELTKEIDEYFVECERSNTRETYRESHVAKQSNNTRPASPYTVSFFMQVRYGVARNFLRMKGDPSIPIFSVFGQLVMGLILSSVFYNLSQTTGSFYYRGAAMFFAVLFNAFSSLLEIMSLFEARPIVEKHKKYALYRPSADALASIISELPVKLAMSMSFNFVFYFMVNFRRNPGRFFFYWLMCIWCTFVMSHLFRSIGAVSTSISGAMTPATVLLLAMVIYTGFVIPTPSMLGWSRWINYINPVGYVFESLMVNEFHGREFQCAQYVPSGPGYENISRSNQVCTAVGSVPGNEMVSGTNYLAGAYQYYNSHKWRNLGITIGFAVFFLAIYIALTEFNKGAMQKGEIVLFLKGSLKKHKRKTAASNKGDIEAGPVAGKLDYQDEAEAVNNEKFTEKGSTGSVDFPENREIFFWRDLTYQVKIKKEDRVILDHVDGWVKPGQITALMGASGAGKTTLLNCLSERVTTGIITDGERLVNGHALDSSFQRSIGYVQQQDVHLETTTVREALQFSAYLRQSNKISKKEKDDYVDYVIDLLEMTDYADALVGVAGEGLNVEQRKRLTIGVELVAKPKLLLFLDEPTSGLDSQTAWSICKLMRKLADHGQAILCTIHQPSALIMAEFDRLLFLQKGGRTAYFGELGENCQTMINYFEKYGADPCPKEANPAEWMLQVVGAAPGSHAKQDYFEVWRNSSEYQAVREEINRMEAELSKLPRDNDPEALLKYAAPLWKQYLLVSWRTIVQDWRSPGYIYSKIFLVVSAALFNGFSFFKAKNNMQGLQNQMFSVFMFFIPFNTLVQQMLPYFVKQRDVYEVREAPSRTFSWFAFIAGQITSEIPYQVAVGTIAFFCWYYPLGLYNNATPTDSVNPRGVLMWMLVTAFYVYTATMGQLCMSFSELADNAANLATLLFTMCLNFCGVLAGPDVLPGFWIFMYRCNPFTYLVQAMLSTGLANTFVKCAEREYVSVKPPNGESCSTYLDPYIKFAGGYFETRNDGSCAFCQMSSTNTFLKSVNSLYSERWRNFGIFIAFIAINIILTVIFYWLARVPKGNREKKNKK
Experimental: Efflux of Rhodamine 6 G. Efflux of R6G was measured generally base on a method described previously by Shukla (cited below). Briefly, C. albicans SC5314 grown overnight at 30° C. in SC medium were transferred to fresh SC medium with a 1:50 dilution and grown at 30° C. with constant shaking for about 5 h. Cells were then pelleted, washed twice with phosphate-buffered saline (PBS), and resuspended in PBS as about 3 OD600 nm. The cells were then deenergized for 45 min in […] 2-deoxy-D-glucose. The cells were pelleted, washed and resuspended in PBS as 3 OD600 nm, to which compounds (30 μM or noted) and R6G (10 μM) were added successively and incubated at 30° C. for 40 min. Cells were collected, washed and resuspended in PBS with or without compounds and incubated at 30° C. Two percent glucose was added at time point 20 min to initiate the energy-dependent efflux. Samples were taken out every 10 min and the absorption of the supernatant was detected at 527 nm.
To further determine if the spiroindolinone functions by inhibiting Cdr1, the activity of efflux pumps was determined by monitoring the efflux of R6G, a fluorescent compound that is used for Cdr1 efflux assay in C. albicans. […] Extracellular R6G concentrations were quantified by measuring the absorbance of the supernatant at 527 nm. […]

[2] = tested on: cdr1/CDR1 heterozygous mutant and cdr1/cdr1 deletion strain; assay: Azole-synergizer effect in cdr1 mutants; assay type: cell-based, Candida albicans; conditions: with FLC
From the text: Strains and growth condition. The wild-type Candida albicans strains used were SC5314 and CaSS1. Cdr1 heterozygous were from Merck Sharp & Dohme Corp. Double Barcoded (DBC) library of heterozygous Candida albicans mutants (version 2013A). Cdr1 deficient mutant was obtained by counterselection of the GRACE library strain on 5-Fluoroorotic Acid (5-FOA) containing plate. Clinical isolated resistant C. albicans were from Dr. David Rogers. Cryptococcus neoformans var. grubii H99 (ATCC 208821) and Candida glabrata BG2, a fluconazole-resistant clinical isolate, were used. Yeast strains were cultured at 30° C. in synthetic complete (SC) medium containing 2% glucose.
Manually Screening. Of the DBC library was carried out in 96-well flat bottom plates. Briefly, BDC library grown in YPD agar were transferred to SC medium in 96-well flat bottom plates with a 96-well pin tool and grown overnight at 30° C. Cell cultures were diluted 1:800 in fresh SC medium with or without compounds and incubated at 30° C. for 24 h. Cell growth was measured with Tecan GENios Plus microplate reader (Tecan, Switzerland).
Small number of outliers in the HIP profiling indicates few off-targets for the compound. To avoid missing genes due to the bias of PCR and sequencing, a manual screening of the DBC library with Compound 1 and FLC in 96 well plates was also carried out.

For `Cc1c(Cl)ccc2c1NC(=O)[C@]21N[C@H](Cc2ccccc2)[C@@H]2C(=O)N(c3ccc(F)cc3)C(=O)[C@@H]21` (racemic) [Compound 1, (±)-(3R,3′R,3a′R,6a'S)-3′-benzyl-6-chloro-5′-(4-fluorophenyl)-7-methyl-2′,3′,3a′,6a′-tetrahydro-4′H-spiro[indoline-3,1′-pyrrolo[3,4-c]pyrrole]-2,4′,6′(5′H)-trione], the “HIP profiling, mutants with significant change in abundance” value [1] was “cdr1/CDR1 emerged as the only mutant that showed a significant change in abundance”, the “energy dependent efflux of R6G” value (Cdr1) was “almost totally inhibited” and the “effect as azole-synergizer in cdr1 mutants” value [2] was “significantly enhanced in the cdr1/CDR1 heterozygous mutant but blocked in the cdr1/cdr1 deletion strain”.

Reference: patent US11174267B2, “Spiroindolinones and therapeutic uses thereof” (The Regents of the University of California, priority 2015, dated 2021)
